Experiments:
[1] = test system: subjects with type 2 diabetes; type: in vivo, human
[2] = test system: subjects with type 2 diabetes; assay: Gastric emptying by appearance of acetaminophen in plasma during GIP infusion; type: in vivo, human; conditions: 1 g acetaminophen with first bite; last 10 subjects
[3] = test system: αTC1 cells; assay: Glucagon secretion from αTC1 cells; type: cell-based; conditions: αTC1 cells stimulated with GIP; secretion into the medium

Compound: CC[C@H](C)[C@H](NC(=O)[C@H](CO)NC(=O)[C@H](Cc1ccc(O)cc1)NC(=O)[C@H](CC(=O)O)NC(=O)[C@H](CO)NC(=O)[C@@H](NC(=O)[C@H](Cc1ccccc1)NC(=O)[C@@H](NC(=O)CNC(=O)[C@H](CCC(=O)O)NC(=O)[C@H](C)NC(=O)[C@@H](N)Cc1ccc(O)cc1)[C@@H](C)O)[C@@H](C)CC)C(=O)N[C@@H](C)C(=O)N[C@@H](CCSC)C(=O)N[C@@H](CC(=O)O)C(=O)N[C@@H](CCCCN)C(=O)N[C@H](C(=O)N[C@@H](Cc1c[nH]cn1)C(=O)N[C@@H](CCC(N)=O)C(=O)N[C@@H](CCC(N)=O)C(=O)N[C@@H](CC(=O)O)C(=O)N[C@@H](Cc1ccccc1)C(=O)N[C@H](C(=O)N[C@@H](CC(N)=O)C(=O)N[C@@H](Cc1c[nH]c2ccccc12)C(=O)N[C@@H](CC(C)C)C(=O)N[C@@H](CC(C)C)C(=O)N[C@@H](C)C(=O)N[C@@H](CCC(N)=O)C(=O)N[C@@H](CCCCN)C(=O)NCC(=O)N[C@@H](CCCCN)C(=O)N[C@@H](CCCCN)C(=O)N[C@@H](CC(N)=O)C(=O)N[C@@H](CC(=O)O)C(=O)N[C@@H](Cc1c[nH]c2ccccc12)C(=O)N[C@@H](CCCCN)C(=O)N[C@@H](Cc1c[nH]cn1)C(=O)N[C@@H](CC(N)=O)C(=O)N[C@H](C(=O)N[C@H](C(=O)N[C@@H](CCC(N)=O)C(=O)O)[C@@H](C)O)[C@@H](C)CC)C(C)C)[C@@H](C)CC [GIP, Glucose-dependent insulinotropic polypeptide]
- plasma glucagon, early postprandial period vs placebo ([1]; 20 ng/kg/min i.v., 0-60 min, positive AUC0-60 P < 0.01, n = 22): statistically significant augmentation in glucagon secretion
- plasma glucose, early postprandial period vs placebo ([1]; 20 ng/kg/min i.v., t = 0-60 min, negative AUC0-60 P < 0.05, n = 22): early transient decrease in plasma glucose
- plasma insulin, early postprandial period vs placebo ([1]; 20 ng/kg/min i.v., t = 0-60 min, positive AUC0-60 P < 0.01, n = 22): statistically significant increase in plasma insulin
- resistin levels vs placebo ([1]; during 3 h of infusion, data not shown): no effect on resistin levels
- gastric emptying (plasma acetaminophen levels, AUCALL t = 0-180 min) vs placebo [2]: did not affect gastric emptying
- glucagon secretion [3]: glucagon secretion in a concentration-dependent manner

From paper PMC2682676 (Diabetes, 2009)
